System: patients with active eosinophilic esophagitis (esophageal eosinophil load)
Experiment: 8 week randomized, double-blind, placebo-controlled study in patients with active eosinophilic esophagitis
Assay type: in vivo, human
Procedure: The study was a randomized, double-blind, placebo-controlled, single-center study of (5-fluoro-2-methyl-3-quinolin-2-ylmethyl-indo-1-yl)-acetic acid (OC000459) for 8 weeks in patients with active (≧20 eos/hpf and symptoms), corticosteroid-dependent, and/or -resistant eosinophilic esophagitis (EoE). The study compared patients taking 100 mg of OC000459 twice daily with patients taking a placebo twice daily. The study consisted of 26 patients with 14 patients taking OC000459 and 12 patients taking the placebo. Pre- and post-treatment disease-activity was assessed clinically, endoscopically, histologically, and via biomarkers. The primary endpoint was the reduction of the esophageal eosinophil load.
5. Free of all medications for EoE (including topical steroids) for at least 2 weeks prior to baseline and free of systemic steroids for at least 90 days before screening. A proton-pump inhibitor is allowed if required for treatment of secondary acid reflux.
After an 8-week treatment of active EoE with OC000459, the total mean eosinophil number decreased from 114.7 to 74.2 eos/hpf, whereas under placebo, no reduction was observed (from 102.8 to 99.4 eos/hpf).
A possible explanation for this is that acid reflux may be responsible for the eosinophilic inflammation in the distal esophagus which is consistent with reports that eosinophilia is reduced by PPIs in some patients with EoE (Molina-Infante et al., 2011). […] It is therefore proposed that the combination of CRTH2 antagonists with PPIs will be effective in the treatment of EoE by blocking both the allergic and acid reflux pathways. Three patients were treated with both OC000459 and esomeprazole, either 20 mg or 40 mg once a day.

## Cc1c(Cc2ccc3ccccc3n2)c2cc(F)ccc2n1CC(=O)O [OC000459, (5-fluoro-2-methyl-3-quinolin-2-ylmethyl-indo-1-yl)-acetic acid]
8 weeks, 100 mg twice daily, compared to placebo (FIG. 1)
  effect on eosinophil load, proximal versus distal esophagus: more pronounced in the proximal upper esophagus than in the distal esophagus
Patients with EoE, 8 weeks
  eosinophilic load in the distal esophagus: not
  eosinophilic load in the proximal esophagus: reduces eosinophilic load
Patients with active EoE, 100 mg twice daily, 8 weeks
  total mean eosinophil number, after 8-week treatment: 74.2 eos/hpf
Patients with active EoE, baseline, 100 mg twice daily group
  total mean eosinophil number, before treatment: 114.7 eos/hpf

Source: US20140328861A1, “Combination of CRTH2 Antagonist and a Proton Pump Inhibitor for the Treatment of Eosinophilic Esophagitis” (Atopix Therapeutics Limited, priority 2011, published 2014)
